In general, inhibition refers to the change of the read-out against control, counted positive when it falls. Higher therefore signals strong suppression. Broadly, the IC50 is the concentration that gives 50% inhibition. Low readings indicate greater potency in that assay, high ones weaker potency in that assay.

One assay relates to HL-60. Description: CUT&RUN of BRD4, H3K27Ac and H3K9Ac. As to conditions: HL-60, 12 h. Format: cell-based, human. As to the method:
CUT&RUN was performed with the kit CUTANA ChIC/CUT&RUN (Epicypher, 14-1048) following the manufacturer’s instructions. Briefly, 0.5 million of HL-60 cells were harvested and resuspended in 100ul wash buffer [20 mM HEPES pH 7.5, 150 mM NaCl, 0.5 mM Spermidine, supplemented with Protease Inhibitor EDTA-Free tablet (Roche 11836170001)]. Activated Concanavalin A was incubated with cells at room temperature for 10 min to let the cells bind to the beads. For each target protein factor, 0.5 μg of BRD4 CUTANA CUT&RUN antibody (Cat No 13-2003, Epicypher), Acetyl-Histone H3 (Lys 9) (C5B11) rabbit monoclonal antibody diluted 1:50 (Cat No 9649 T, Cell Signaling) or Acetyl-Histone H3 (Lys 27) (D5E4) XP rabbit monoclonal antibody diluted 1:100 (Cat No 8173T, Cell Signaling) was added to each sample and incubated in the antibody buffer (wash buffer +0.01% Digitonin and 2 mM EDTA) overnight at 4 °C. Isotype control IgG was used as a negative control. The beads were then washed twice with digitonin buffer [wash buffer +0.01% Digitonin] and 2.5 μL pAG-MNase was added to each sample. After ten minutes of incubation at room temperature, excessive pAG-MNase was washed out by a two-time digitonin buffer wash. Then targeted chromatin was digested and released from cells by 2 h of incubation with the presence of 2 mM CaCl2 at 4 °C. After incubation with stop buffer [340 mM NaCl, 20 mM EDTA, 4 mM EGTA, 50 μg/mL RNase A, 50 μg/mL Glycogen] for 10 min at 37 °C the supernatant containing CUT&RUN-enriched DNA was purified using the CUTANA DNA Purification kit (Epicypher). Finally, Illumina sequencing libraries were prepared from 6 ng of purified CUT&RUN DNA using NEBNext UltraTM II DNA Library Prep Kit for Illumina, following the manufacturer’s instructions. For BRD4, some modifications were added following the protocol of Nan Liu (Harvard University; 10.17504/protocols.io.wvgfe3w). Libraries were sequenced using NEXTseq500 (Illumina).
The Cut&Run samples were analyzed using the CUT&RUN tools pipeline with default settings and no filtering for 120 bp fragments. Peak calling was performed on deduplicated reads with macs2 version 2.2.6 using the respective IgG samples as control, narrow peak calling and paired-end settings, and a threshold of q = 0.01.
Specifically, 12 chromatin states, based on the combination of 6 histone marks, for 38 AML samples were used[59]. The vast majority of the regions could be entirely annotated to a single chromatin state while some could be entirely annotated to a single chromatin state after the replacement of consecutive chromatin states with similar characteristics with one of them (i.e combination of Transcription Transition / Transcription Elongation / Weak Transcription to Transcription Transition or combination of Heterochromatin; Represesed/ Heterochromatin; Low Signal to Heterochromatin; Repressed etc). The regions that couldn’t be entirely annotated to a single chromatin state or simplified chromatin state were removed. […] We then calculated the percentage of each chromatin state taking into account the width of the regions. As background, we used all the regions of each AML sample and we calculated the percentage of the chromatin states similarly. Finally, we calculated the fold change of each chromatin state as a percentage in the sample to a percentage in the background AML sample.

A further assay has as its target T1, JMJD2E (Homo sapiens, UniProt B2RXH2).
T1 construct: purchased BPS Bioscience; Eurofins (HDAC4, 5, 7-11)
The assay is described as follows: Epigenetic panel (BPS Bioscience). Format: biochemical. From the text: (§1) The selectivity of CM-444 and CM-1758 against other epigenetic targets, including histone demethylase (JMJD2A, JMJD2B, JMJD2C, JMJD2D, JMJD2E, JMJD3, JMJD1A, LSD1, Jarid1A, Jarid1B, Jarid1C, FBXL10, FBXL11, JHDM1D, JMJD1B, PHF8, LSD2 and UTX); histone acetyltransferases (GCN5, P300); histone methyltransferases (G9a, GLP, MLL1, SET7/9, SUV39H1, SUV39H2, PRMT1, PRMT3, PRMT4, PRMT5, PRMT6, PRMT8, PRMT9, NSD1, NSD2, EZH1, EZH2, SETDB1, SETD2, SET8, SUV4-20H1, SMYD2, SMYD3, DOT1L, EZH2 (A677G), EZH2 (A677G), EZH2 (A738T), EZH2 (Y641S), EZH2 (P132S), EZH2 (Y641C), EZH2 (Y641F), EZH2 (Y641H), EZH2 (Y641N)); bromodomains (ATAD2B, ATAD2A, BRD1, BRD9, BPTF/FALZ, CeCR2, BRPF3, BRD3 (BD1 + BD2), BAZ2B, WDR9, TAF1 (BD2), TAF1L (BD2), TAF1L (BD1 + BD2), BRD2 (BD1), BRD2 (BD2), BRD2 (BD1 + BD2), BRD3 (BD1), BRD3 (BD2), BRD4 (BD1), BRD4 (BD2), BRD4 (BD1 + BD2), BRDT (BD1), BRDT (BD1 + BD2), CREBBP, SMARCA2A, SMARCA4/BRG1); DNA methyltranferases (DNMT1, DNMT3A/3L and DNMT3B/3L), and sirtuin histone deacetylases (SIRT1, SIRT2, SIRT3, SIRT5 and SIRT6), were determined by BPS Bioscience (http://www.bpsbioscience.com/index.ph). Binding experiments were performed in duplicate at a concentration of 10 μM.

A further assay has as its target T2, PRMT1 (Homo sapiens, UniProt Q99873).
T2 construct: purchased BPS Bioscience; Eurofins (HDAC4, 5, 7-11)
Description: Epigenetic panel (BPS Bioscience). It is filed as biochemical.
Text: as §1

Another assay addresses T3, DOT1L (Homo sapiens, UniProt Q8TEK3).
T3 construct: purchased BPS Bioscience; Eurofins (HDAC4, 5, 7-11)
Description: Epigenetic panel (BPS Bioscience). Format: biochemical.
Text: as §1

The next assay deals with HDAC3 (Homo sapiens, UniProt O15379). Description: HDAC enzymatic assay, fluorescence-labeled substrate. It is filed as biochemical. The settings on record: for inhibition at 10 µM: source data of Fig. 1B.
Chain of HDAC3 (O15379 whole entry): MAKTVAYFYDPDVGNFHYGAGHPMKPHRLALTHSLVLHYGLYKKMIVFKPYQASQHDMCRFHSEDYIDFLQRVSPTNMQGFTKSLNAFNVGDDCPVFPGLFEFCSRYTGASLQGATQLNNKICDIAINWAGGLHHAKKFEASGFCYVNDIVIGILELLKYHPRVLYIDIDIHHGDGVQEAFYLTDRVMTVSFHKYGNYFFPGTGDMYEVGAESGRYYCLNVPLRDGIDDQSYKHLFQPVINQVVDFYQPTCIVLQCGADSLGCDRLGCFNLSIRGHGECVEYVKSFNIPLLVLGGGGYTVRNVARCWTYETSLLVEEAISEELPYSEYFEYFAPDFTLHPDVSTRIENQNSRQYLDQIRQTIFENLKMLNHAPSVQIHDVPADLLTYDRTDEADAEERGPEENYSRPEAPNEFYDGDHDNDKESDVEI
Chain of HDAC3 (Q9Y618 395-489 partner limits assumed): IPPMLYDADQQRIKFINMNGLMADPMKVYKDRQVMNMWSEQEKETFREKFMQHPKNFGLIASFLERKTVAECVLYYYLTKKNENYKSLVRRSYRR
Another assay deals with T4, HDAC11 (Homo sapiens, UniProt Q96DB2).
T4 sequence (Q96DB2 1-347): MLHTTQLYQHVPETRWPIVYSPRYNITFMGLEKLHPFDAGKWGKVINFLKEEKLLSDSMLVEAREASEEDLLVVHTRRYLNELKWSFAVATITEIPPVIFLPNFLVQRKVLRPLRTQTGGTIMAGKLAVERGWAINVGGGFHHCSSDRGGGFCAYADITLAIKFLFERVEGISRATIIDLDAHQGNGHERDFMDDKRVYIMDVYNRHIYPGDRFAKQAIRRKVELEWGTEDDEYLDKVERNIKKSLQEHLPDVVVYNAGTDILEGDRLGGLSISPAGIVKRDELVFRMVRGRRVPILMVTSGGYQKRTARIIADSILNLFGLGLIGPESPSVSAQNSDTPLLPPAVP
Description: Continuous and direct activity assay for HDAC11. It is filed as biochemical. As to conditions: for inhibition at 10 µM: source data of Fig. 1B; for IC50: Continuous Activity Assay for HDAC11.

T1 sequence (B2RXH2 whole entry): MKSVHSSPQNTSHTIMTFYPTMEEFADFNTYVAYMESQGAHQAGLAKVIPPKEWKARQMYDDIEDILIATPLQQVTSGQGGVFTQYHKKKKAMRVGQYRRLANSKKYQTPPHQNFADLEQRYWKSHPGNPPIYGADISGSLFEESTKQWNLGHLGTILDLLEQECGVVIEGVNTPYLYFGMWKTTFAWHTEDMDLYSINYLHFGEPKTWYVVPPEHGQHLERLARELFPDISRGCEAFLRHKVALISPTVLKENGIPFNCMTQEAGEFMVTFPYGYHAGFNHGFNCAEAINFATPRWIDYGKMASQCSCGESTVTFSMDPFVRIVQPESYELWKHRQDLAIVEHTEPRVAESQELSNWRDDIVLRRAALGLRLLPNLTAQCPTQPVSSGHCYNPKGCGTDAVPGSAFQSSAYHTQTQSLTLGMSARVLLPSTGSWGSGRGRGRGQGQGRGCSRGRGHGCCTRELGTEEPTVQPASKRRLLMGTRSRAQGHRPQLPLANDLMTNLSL
T2 sequence (Q99873 whole entry): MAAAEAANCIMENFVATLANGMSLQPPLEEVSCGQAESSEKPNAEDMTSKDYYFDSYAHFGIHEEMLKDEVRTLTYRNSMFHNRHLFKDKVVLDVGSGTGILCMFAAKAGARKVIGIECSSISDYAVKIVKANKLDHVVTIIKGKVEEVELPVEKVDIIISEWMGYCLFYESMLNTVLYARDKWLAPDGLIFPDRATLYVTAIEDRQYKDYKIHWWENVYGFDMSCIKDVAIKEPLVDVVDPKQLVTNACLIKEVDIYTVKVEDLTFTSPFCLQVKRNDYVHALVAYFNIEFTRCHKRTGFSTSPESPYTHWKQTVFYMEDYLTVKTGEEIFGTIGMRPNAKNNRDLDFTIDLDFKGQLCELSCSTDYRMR
T3 sequence (Q8TEK3 whole entry): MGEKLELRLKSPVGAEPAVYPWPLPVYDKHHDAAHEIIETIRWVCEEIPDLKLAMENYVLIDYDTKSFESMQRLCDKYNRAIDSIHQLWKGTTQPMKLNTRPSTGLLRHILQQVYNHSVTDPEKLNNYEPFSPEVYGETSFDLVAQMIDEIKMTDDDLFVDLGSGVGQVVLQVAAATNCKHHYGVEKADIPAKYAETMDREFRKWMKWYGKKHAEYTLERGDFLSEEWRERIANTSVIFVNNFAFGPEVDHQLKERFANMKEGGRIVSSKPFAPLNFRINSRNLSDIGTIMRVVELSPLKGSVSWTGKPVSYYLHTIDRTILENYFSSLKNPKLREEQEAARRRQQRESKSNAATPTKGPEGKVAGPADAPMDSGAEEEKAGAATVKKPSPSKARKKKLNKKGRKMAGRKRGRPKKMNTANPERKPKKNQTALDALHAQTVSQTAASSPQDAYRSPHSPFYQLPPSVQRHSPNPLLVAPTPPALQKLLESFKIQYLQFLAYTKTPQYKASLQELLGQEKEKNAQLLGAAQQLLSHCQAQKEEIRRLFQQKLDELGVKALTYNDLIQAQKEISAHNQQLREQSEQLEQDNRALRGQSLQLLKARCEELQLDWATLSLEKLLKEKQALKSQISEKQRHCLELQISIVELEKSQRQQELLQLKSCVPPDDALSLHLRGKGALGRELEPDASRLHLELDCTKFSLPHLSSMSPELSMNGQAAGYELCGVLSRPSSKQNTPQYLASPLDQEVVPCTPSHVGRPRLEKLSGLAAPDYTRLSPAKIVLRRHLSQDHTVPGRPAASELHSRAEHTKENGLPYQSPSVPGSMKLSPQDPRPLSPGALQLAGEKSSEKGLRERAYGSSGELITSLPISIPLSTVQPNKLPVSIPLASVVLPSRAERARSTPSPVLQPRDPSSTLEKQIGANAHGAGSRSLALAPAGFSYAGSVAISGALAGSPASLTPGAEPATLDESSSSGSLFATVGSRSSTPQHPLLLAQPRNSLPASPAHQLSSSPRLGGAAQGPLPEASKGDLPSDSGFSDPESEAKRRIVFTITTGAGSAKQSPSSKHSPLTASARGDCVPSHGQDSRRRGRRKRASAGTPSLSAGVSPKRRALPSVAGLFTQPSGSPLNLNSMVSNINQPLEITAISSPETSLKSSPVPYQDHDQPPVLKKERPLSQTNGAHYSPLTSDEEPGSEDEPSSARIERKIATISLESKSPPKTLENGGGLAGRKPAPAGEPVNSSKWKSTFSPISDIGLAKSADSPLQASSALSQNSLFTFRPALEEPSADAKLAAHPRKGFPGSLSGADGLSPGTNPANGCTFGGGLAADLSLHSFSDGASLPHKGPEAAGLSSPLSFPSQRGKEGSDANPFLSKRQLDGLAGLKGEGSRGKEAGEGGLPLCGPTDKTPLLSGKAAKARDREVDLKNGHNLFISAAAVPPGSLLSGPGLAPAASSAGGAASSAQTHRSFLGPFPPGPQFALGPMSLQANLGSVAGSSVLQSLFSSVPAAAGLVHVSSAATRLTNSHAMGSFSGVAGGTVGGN

As to `Cc1[nH]c2ccccc2c1CCNCc1ccc(/C=C/C(=O)NO)cc1` [Panobinostat, reference compound], in the assay with HL-60, the “BRD4 CUT&RUN peaks” value came to 16030, the “H3K9Ac CUT&RUN peaks” value worked out at 32775 and the “H3K27Ac CUT&RUN peaks” value stood at 26959.

On to `COc1cc2nc(-c3cc(C)oc3C)cc(NCC3CCN(c4ncc(C(=O)NO)cn4)CC3)c2cc1OC` [CM-1758, 2-[4-[[[2-(2,5-dimethyl-3-furyl)-6,7-dimethoxy-4-quinolyl]amino]methyl] -1-piperidyl]pyrimidine-5-carbohydroxamic acid], for which the inhibition at 10 µM at JMJD2E stood at 1%; against PRMT1, 0%; on DOT1L it was 0%; on HDAC3, 90%; at HDAC11, 90%. For the same molecule, the 50% inhibitory concentration (IC50) at HDAC3 amounted to 14 nM; against HDAC11, 600 nM.

`COc1cc2nc(-c3ccc(C)o3)cc(NCC3CCN(c4ncc(C(=O)NO)cn4)CC3)c2cc1OC` [CM-444, 2-[4-[[[6,7-dimethoxy-2-(5-methyl-2-furyl)-4-quinolyl]amino]methyl]-1-piperidyl]pyrimidine-5-carbohydroxamic acid]: the inhibition at 10 µM against JMJD2E was 5%; against PRMT1, 0%; against DOT1L it was 0%; against HDAC3 it was 90%; against HDAC11, 90%. The “BRD4 CUT&RUN peaks” value in the assay with HL-60 amounted to 19570. In addition, the “H3K9Ac CUT&RUN peaks” value in the assay with HL-60 is reported as 7568. The “H3K27Ac CUT&RUN peaks” value with HL-60 was found to be 48991. Also, at HDAC11, the midpoint of inhibition, the IC50, lay at 568 nM.

The values are drawn from article PMC11219871, “Epigenetic-based differentiation therapy for Acute Myeloid Leukemia” (Nature Communications, 2024).
